From patent US20230278987A1, “Antimicrobial Compounds and Methods” (Curza Global, LLC, priority 2019, published 2023)
Values after ≈ are worked out from the molar mass of the structure shown. Where a name gives a salt, the structure may show the parent alone.

Legend:
E.coli (Ec) = assay: Broth microdilution MIC against E.coli (Ec); format: cell-based; conditions: Escherichia coli; CAMHB supplemented with sodium bicarbonate 6.25 mM; read-out: E. coli + bicarb 6.25 (MIC)
Description: (§1) A certified BSL-2 laboratory was used for testing. Compounds were evaluated using the broth microdilution minimum inhibitory concentration (MIC) and minimum bactericidal concentration (MBC) assays defined by Clinical and Laboratory Standards Institute (CLSI) in the M26-A guideline against S.aureus (Sa), E.coli (Ec), K.pneumoniae (Kp), A.baumannii (Ab), E.faecalis (Ef) and P.aeruginosa (Pa).
(§2) MICs were determined using the Clinical Laboratory and Standards Institute (CLSI) Broth Microdilution Method with slight modification. Clinical and Laboratory Standards Institute (2012). “Methods for dilution antimicrobial susceptibility tests for bacteria that grow aerobically; approved standard, 9th ed. M07-A9. Clinical and Laboratory Standards Institute, Wayne, PA.” Serial two-fold dilutions of compounds are prepared in sterile clear roundbottom 96-well plates.
(§3) To prepare microdilution trays, two-fold dilutions of antimicrobial agent are prepared in growth medium: Cation-Adjusted Mueller-Hinton Broth (CAMHB), or CAMHB supplemented with sodium bicarbonate (6.25 or 25 mM final concentration prepared from a 1.0 M stock solution) or CAMHB supplemented with heat inactivated human serum (Fisher Cat. # BP2657100) 0-50% by adding 200 µL of the highest concentration to be tested (64 µg/mL, for example) in row A, mixing and transferring 100 µL from row A to 100 µL growth medium in row B, then repeating the mixing and transferring through row H of the 96-well plate, discarding the excess 100 µL remaining. This slight modification to the CLSI protocol enables evaluation of MICs for 3 compounds per plate in triplicate, albeit with only 8 compound dilutions (CLSI protocol enables 2 compounds in triplicate with 10 dilutions). Bacterial suspensions are added to a final concentration of 5 × 10^4 CFU/well by adding 5 µL of a 1:10 dilution of a 0.5 McFarland suspension (1 × 10^8 CFU/mL) for each bacterium evaluated. Bacterial suspensions were prepared using the growth method described by CLSI. Well-isolated colonies (3-5 from an agar plate) were selected using a sterile loop and used to inoculate a tube containing 4 mL of CAMHB. The cultures are incubated at 35 ± 2° C. until it achieves or exceeds the turbidity of the 0.5 McFarland standard, determined by measuring A600nm (usually two to six hours). When growth exceeds a 0.5 McFarland standard, the turbidity is adjusted with broth to be equivalent to a 0.5 McFarland standard.

E.faecalis (Ef) = assay: Broth microdilution MIC against E.faecalis (Ef); format: cell-based; conditions: Enterococcus faecalis, CAMHB supplemented with sodium bicarbonate 6.25 mM; read-out: Ef +bicarb 6.25 (MIC)
Description: as §1, §2, §3

P.aeruginosa (Pa) = assay: Broth microdilution MIC against P.aeruginosa (Pa); format: cell-based; conditions: Pseudomonas aeruginosa; CAMHB supplemented with sodium bicarbonate 6.25 mM; read-out: Pa +bicarb 6.25 (MIC)
Description: as §1, §2, §3

[1] = system: E.coli S30 extract (bacterial protein synthesis); assay: E.coli S30 extract: inhibition of bacterial protein synthesis (luciferase); format: biochemical; conditions: 37° C. for 1 hour
Description: E.coli S30 extract: Inhibition of bacterial protein synthesis was determined using the E.coli S30 Extract System for Circular DNA (Promega catalog #L-2010) and Luciferase Assay Reagent (Promega catalog #E1500) with slight modifications to a published protocol. Fyfe, C., Sutcliffe, J.A. and Grossman, T.H. (2012) “Development and characterization of a Pseudomonas aeruginosa in vitro coupled transcription-translation assay system for evaluation of translation inhibitors” J. Microbiol. Methods 90(3), 256-261.
Compounds were serial diluted in 0.5 mL microcentrifuge tubes by mixing and transferring 50 µL from the highest concentration to 50 µL of water, mixing and transferring 50 µL of this 2-fold dilution to 50 µL of water. This mixing and transferring was repeated so that there are a total of 8 tubes with serial dilutions of compound at 10× the desired screening concentration that are ultimately diluted to 1× by the addition of S30 luciferase synthesis mixture. Serial dilutions of compounds were added (2 µL) to wells in a black round bottom 96-well plate. Water (2 µL) was used as a “no inhibitor” control in 4 wells/plate. No DNA control reaction mixture (20 µL; see below) was used as a control in 4 wells/plate for background luminescence. S30 luciferase synthesis mixture (18 µL; see below) was added to wells with compounds or water mixture and incubated at 37° C. for 1 hour. Reactions were stopped by transferring to 4° C. refrigerator for 5 minutes then 25 µL of luciferase activity mix was added. Luminescence was measured using a BioTek Synergy HTX plate reader. % Inhibition was determined relative to no inhibitor controls.
S30 luciferase synthesis mixture: • 445 µL S30 extract, circular • 712 µL S30 Premix without amino acids • 4.45 µL pBESTluc™ DNA (1 µg/ µL) • 78 µL complete amino acid mixture • 267 µL water
No DNA control: • 20 µL S30 extract, circular • 32 µL S30 Premix without amino acids • 7 µL complete amino acid mixture • 21 µL water

A.baumannii (Ab) = assay: Broth microdilution MIC against A.baumannii (Ab); format: cell-based; conditions: Acinetobacter baumannii; CAMHB supplemented with sodium bicarbonate 6.25 mM; read-out: Ab +bicarb 6.25 (MIC)
Description: as §1, §2, §3

[2] = molecular target: Rabbit Reticulocyte Lysate (eukaryotic protein synthesis); assay: Rabbit Reticulocyte Lysate: inhibition of eukaryotic protein synthesis (luciferase); format: biochemical; conditions: 30° C. for 90 minutes, read-out: retic. IC50
Description: Inhibition of eukaryotic protein synthesis was determined using the Rabbit Reticulocyte Lysate System, Nuclease-Treated from Promega (catalog #L-4960) with slight modifications to the manufacturer’s protocol. Compounds were serial diluted in 0.5 mL microcentrifuge tubes by mixing and transferring 50 µL from the highest concentration to 50 µL of water, mixing and transferring 50 µL of this 2-fold dilution to 50 µL of water. This mixing and transferring was repeated so that there are a total of 8 tubes with serial dilutions of compound at 10× the desired screening concentration that are ultimately diluted to 1× by the addition of rabbit reticulocyte luciferase synthesis mixture. Serial dilutions of compounds were added (2.5 µL) to wells in a black round bottom 96-well plate. Water (2.5 µL) was used as a “no inhibitor” control in 4 wells/plate. No RNA control reaction mixture (2 µL; see below) was used as a control in 4 wells/plate for background luminescence. Rabbit reticulocyte luciferase synthesis mixture (22.5 µL; see below) was added to wells with compounds or water mixture and incubated at 30° C. for 90 minutes. Luciferase assay reagent (25 µL) was added with luminescence measured using a BioTek Synergy HTX plate reader. % Inhibition was determined relative to no inhibitor controls.
Rabbit reticulocyte luciferase synthesis mixture: • 1,000 µL rabbit reticulocyte lysate • 5.7 µL Luciferase Control RNA (1 µg/ µL) • 26 µL complete amino acid mixture • 395 µL water
No RNA Control • 70 µL rabbit reticulocyte lysate • 2 µL complete amino acid mixture • 28 µL water

S.aureus (Sa) = assay: Broth microdilution MIC against S.aureus (Sa); format: cell-based; conditions: Staphylococcus aureus, CAMHB supplemented with sodium bicarbonate 6.25 mM; read-out: Sa + bicarb 6.25 (MIC)
Description: as §1, §2, §3

SMILES	MIC (E.coli (Ec)) [µg/mL]	MIC (E.faecalis (Ef)) [µg/mL]	MIC (P.aeruginosa (Pa)) [µg/mL]	IC50 [1] [nM]	MIC (A.baumannii (Ab)) [µg/mL]	IC50 [2] [nM]	MIC (S.aureus (Sa)) [µg/mL]
CC(C)(N)C(=O)N1CCN(C(=O)Nc2ccn(-c3ccc4c(c3)CCC(N[C@H]3C[C@H](N)C3)C4)c(=O)n2)CC1 (stereo partly shown) [Compound 29]	< 8	8 to 32 (≈ 15.3 to 61.2 µM)	> 32	< 500	> 32	≥ 1000	< 8
CC(C)(N)C(=O)N1CCN(C(=O)Nc2ccn(-c3ccc4c(c3)CCC(N[C@H]3C[C@@H](N)C3)C4)c(=O)n2)CC1 (stereo partly drawn) [Compound 30, 4-Amino-2-Methylpropanoyl)-N-(1-(6-(((Cis-3-Aminocyclobutyl)Amino)-5,6,7,8-Tetrahydronaphthalen-2-Yl)-2-Oxo-1,2-Dihydropyrimidin-4-Yl)Piperazine-1-Carboxamide Hydrochloride Salt]	< 8	8 to 32	> 32	< 500	> 32	≥ 1000	< 8
CC(C)(N)C(=O)N1CCN(C(=O)Nc2ccn(-c3ccc4c(c3)CCC(NC[C@H]3C[C@H](N)C3)C4)c(=O)n2)CC1 (stereo partly shown) [Compound 31]	< 8	8 to 32 (≈ 14.9 to 59.6 µM)	> 32	< 500	> 32	≥ 1000	< 8
CC(C)(N)C(=O)N1CCN(C(=O)Nc2ccn(-c3ccc4c(c3)CCC(NC[C@H]3C[C@@H](N)C3)C4)c(=O)n2)CC1 (stereo partly shown) [Compound 32]	< 8	8 to 32 (≈ 14.9 to 59.6 µM)	> 32	< 500	> 32	≥ 1000	< 8
CC(C)(N)C(=O)N1CCN(C(=O)Nc2ccn(-c3ccc4c(c3)CCN(C3CCC(N)CC3)C4)c(=O)n2)CC1 (stereo not shown) [Compound 35]	< 8	> 32	> 32	< 500	> 32	≥ 1000	< 8
CC(C)(N)C(=O)N1CCN(C(=O)Nc2ccn(-c3ccc4c(c3)CC(N[C@H]3CC[C@H](N)C3)C4)c(=O)n2)CC1 (stereo partly shown) [Compound 36, Hydrochloride Salt]	< 8	> 32	> 32	< 500	> 32	< 500	8 to 32
CC(C)(N)C(=O)N1CCN(C(=O)Nc2ccn(-c3ccc4c(c3)CC(NC[C@H]3C[C@H](N)C3)C4)c(=O)n2)CC1 (stereo partly shown) [Compound 37, Hydrochloride Salt]	< 8	> 32	> 32	< 500	> 32	≥ 1000	8 to 32
